The test deals with NCI-H1417 complex spheroids, growth % test/control. The experiment in a line: Anticancer human tumor NCI-H1417 cell line growth inhibition [Asc].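 For all read-outs here: spheroids exposed to compounds for 7 days.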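 For viability, T/C: 100% = DMSO vehicle control wells.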 Particulars: for viability, T/C: stronger effect = lower value. The essentials:
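Tumor cells were grown as multicellular spheroids with stromal HUVEC and mesenchymal stem cells and treated singly or in combination. Concentrations fell in half-log steps from the clinical Cmax, or from 10 microM where none was known.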

Where [1] appears, read: curve of first compound, second compound 0.1 µM.
Setting [2] is: curve of first compound, second compound 0.316 µM.
The mark [3] stands for this setting: curve of first compound, second compound 1 µM.
Where [4] appears, read: second compound 0.1 µM, first compound 0.00316 µM.
The mark [5] stands for this setting: second compound 0.1 µM, first compound 0.01 µM.
The mark [6] stands for this setting: second compound 0.1 µM, first compound 0.0316 µM.
The mark [7] stands for this setting: second compound 0.1 µM, first compound 0.1 µM.
Setting [8] is: second compound 0.1 µM, first compound 0.316 µM.
Setting [9] is: second compound 0.1 µM, first compound 1 µM.
Where [10] appears, read: second compound 0.316 µM, first compound 0.00316 µM.
Where [11] appears, read: second compound 0.316 µM, first compound 0.01 µM.
Where [12] appears, read: second compound 0.316 µM, first compound 0.0316 µM.
Setting [13] is: second compound 0.316 µM, first compound 0.1 µM.
[14] abbreviates: second compound 0.316 µM, first compound 0.316 µM.
[15] abbreviates: second compound 0.316 µM, first compound 1 µM.
The mark [16] stands for this setting: second compound 1 µM, first compound 0.00316 µM.
[17] abbreviates: second compound 1 µM, first compound 0.01 µM.
[18] abbreviates: second compound 1 µM, first compound 0.0316 µM.
The mark [19] stands for this setting: second compound 1 µM, first compound 0.1 µM.
Setting [20] is: second compound 1 µM, first compound 0.316 µM.
Where [21] appears, read: second compound 1 µM, first compound 1 µM.

The values that follow come from PubChem BioAssay AID1963440 (Molecular Pharmacology Branch, DTP, NCI, 2024).

Values joined by “and” are separate entries in the source; they are usually repeats but may differ in a detail not shown here. Identical values can stand only once.

As a reminder, the IC50 is the midpoint of a concentration-inhibition curve. By viability, T/C is commonly meant the ratio of treated to control. With `COc1c(OCCCN2CCOCC2)ccc2c3n(c(=NC(=O)c4cnc(N)nc4)nc12)CCN3` + CNC(C)C(=O)NC1CN(S(=O)(=O)c2cccc(S(=O)(=O)N3CCC4CCC(C(=O)NC(c5ccccc5)c5ccccc5)N4C(=O)C(NC(=O)C(C)NC)C3)c2)CCC2CCC(C(=O)NC(c3ccccc3)c3ccccc3)N2C1=O, the IC50 is greater than 1000 nM (curve of first compound, second compound 0.01 µM); greater than 1000 nM (curve of first compound, second compound 0.0316 µM); greater than 1000 nM under setting [1]; greater than 1000 nM under setting [2]; greater than 1000 nM under setting [3]. The viability, T/C (second compound 0.01 µM, first compound 0.00316 µM) was 95.5%; the viability, T/C (second compound 0.01 µM, first compound 0.01 µM) is 109%; the viability, T/C (second compound 0.01 µM, first compound 0.0316 µM) is 100%; the viability, T/C (second compound 0.01 µM, first compound 0.1 µM) was 82.3%; the viability, T/C (second compound 0.01 µM, first compound 0.316 µM) was 79.4%; the viability, T/C (second compound 0.01 µM, first compound 1 µM) was 58.4%. Moreover, the viability, T/C was 96.1% (second compound 0.0316 µM, first compound 0.00316 µM); 93.8% (second compound 0.0316 µM, first compound 0.01 µM); 91.1% (second compound 0.0316 µM, first compound 0.0316 µM); 78.5% (second compound 0.0316 µM, first compound 0.1 µM); 77.2% (second compound 0.0316 µM, first compound 0.316 µM); 57.8% (second compound 0.0316 µM, first compound 1 µM). Besides, the viability, T/C by setting is: under setting [4], 95.4%; under setting [5], 96.5%; under setting [6], 96.6%; under setting [7], 81.1%; under setting [8], 71.4%; under setting [9], 53.8%. In addition, the viability, T/C by setting is: under setting [10], 99.4%; under setting [11], 97.7%; under setting [12], 87.2%; under setting [13], 74.1%; under setting [14], 69.2%; under setting [15], 56.4%. Also, the viability, T/C runs as follows: under setting [16], 97.7%; under setting [17], 99%; under setting [18], 90.1%; under setting [19], 83.4%; under setting [20], 77.2%; under setting [21], 56.4%.

As for `Cc1c(S(C)(=O)=O)c(-c2cc(F)cc(N3CCN(c4ccc(NS(=O)(=O)c5ccc(NC(CCN6CCC(C(=O)OCCCP(=O)(O)O)CC6)CSc6ccccc6)c(S(=O)(=O)C(F)(F)F)c5)cc4)CC3)c2)c(-c2ccc(Cl)cc2)n1C(C)C` (configuration not stated), the viability, T/C was 81.6% [middle of 14 runs] (compound 0.1 µM); 50.6% [middle of 14 runs] (compound 0.316 µM); 13.7% [middle of 14 runs] (compound 1 µM); 3.19% [middle of 14 runs] (compound 3.16 µM); 2.54% [middle of 12 runs] (compound 10 µM). Moreover, the IC50 (compound alone, run of 10/11/2022) was 322 nM [middle of 14 runs].

For the molecule `CCN1CCN(Cc2ccc(Nc3ncc(F)c(-c4cc(F)c5nc(C)n(C(C)C)c5c4)n3)nc2)CC1`, the viability, T/C was 99.3% and 89.7% and 102% (compound 0.00316 µM); 95.8% and 105% and 93.8% (compound 0.01 µM); 99.9% and 102% and 101% (compound 0.0316 µM); 96.5% and 111% and 105% (compound 0.1 µM); 92.8% and 84.3% and 97.3% (compound 0.316 µM); 91.7% and 81% and 79.7% (compound 1 µM). Further, the IC50 (curve of compound) is greater than 1000 nM.

For `NC1CCC(NC2CC2c2ccccc2)CC1` (configuration not stated), the viability, T/C was 94.2% and 90.8% and 94.6% (compound 0.000316 µM); 91.8% and 89.6% and 93.2% (compound 0.001 µM); 89.5% and 86.4% and 89.2% (compound 0.00316 µM); 83.2% and 78.4% and 87.9% (compound 0.01 µM); 89% and 84.6% and 88.3% (compound 0.0316 µM); 82.3% and 78.4% and 97.6% (compound 0.1 µM). The IC50 (curve of compound) was greater than 100 nM.

For the molecule `C=CC(=O)N1CCN(c2nc(=O)n(-c3c(C)ccnc3C(C)C)c3nc(-c4c(O)cccc4F)c(F)cc23)C(C)C1` (configuration not stated), the viability, T/C runs as follows: (compound 0.0316 µM) 111% and 108% and 110%; (compound 0.1 µM) 105% and 90.2% and 96.7%; (compound 0.316 µM) 112% and 98.4% and 106%; (compound 1 µM) 111% and 105% and 101%; (compound 3.16 µM) 99.4% and 104% and 103%; (compound 10 µM) 99.5% and 102% and 94.5%. Moreover, the IC50 (curve of compound) was greater than 10000 nM.

As for `CCN1CCN(Cc2ccc(Nc3ncc(F)c(-c4cc(F)c5nc(C)n(C(C)C)c5c4)n3)nc2)CC1` + Cc1c(S(C)(=O)=O)c(-c2cc(F)cc(N3CCN(c4ccc(NS(=O)(=O)c5ccc(NC(CCN6CCC(C(=O)OCCCP(=O)(O)O)CC6)CSc6ccccc6)c(S(=O)(=O)C(F)(F)F)c5)cc4)CC3)c2)c(-c2ccc(Cl)cc2)n1C(C)C, the IC50 was greater than 1000 nM under setting [1]; less than 3.16 nM under setting [2]; less than 3.16 nM under setting [3]; less than 3.16 nM (curve of first compound, second compound 3.16 µM); less than 3.16 nM (curve of first compound, second compound 10 µM). The viability, T/C is 88.6% under setting [4]; 83.6% under setting [5]; 82.2% under setting [6]; 69.5% under setting [7]; 66.6% under setting [8]; 58.1% under setting [9]. The viability, T/C under setting [10] was 47.8%; the viability, T/C under setting [11] was 45.8%; the viability, T/C under setting [12] was 44.7%; the viability, T/C under setting [13] is 28.9%; the viability, T/C under setting [14] is 24%; the viability, T/C under setting [15] was 21%. The viability, T/C under setting [16] was 14.4%; the viability, T/C under setting [17] was 12%; the viability, T/C under setting [18] was 10.6%; the viability, T/C under setting [19] was 7.35%; the viability, T/C under setting [20] was 6.95%; the viability, T/C under setting [21] was 2.98%. Moreover, the viability, T/C was 2.92% (second compound 3.16 µM, first compound 0.00316 µM); 2.69% (second compound 3.16 µM, first compound 0.01 µM); 2.77% (second compound 3.16 µM, first compound 0.0316 µM); 2.85% (second compound 3.16 µM, first compound 0.1 µM); 2.68% (second compound 3.16 µM, first compound 0.316 µM); 3.02% (second compound 3.16 µM, first compound 1 µM). Moreover, the viability, T/C reads like this: (second compound 10 µM, first compound 0.00316 µM) 2.2%; (second compound 10 µM, first compound 0.01 µM) 2.36%; (second compound 10 µM, first compound 0.0316 µM) 2.21%; (second compound 10 µM, first compound 0.1 µM) 1.72%; (second compound 10 µM, first compound 0.316 µM) 2.26%; (second compound 10 µM, first compound 1 µM) 2.79%.
